Source: PMC12040169 (PLOS Biology, 2025)

Assay: in vitro
Details: human, hela cells, % viability

## O=C(NCCCc1ccc(F)cc1)c1cccc(-n2cnnc2)c1 [CBK282713]
  viability at 28.5 h, 10 µM: 102%

## CCN(CCCCC1NC(=O)NC1=O)Cc1ccncc1 (stereo not shown) [CBK143967]
  viability at 28.5 h, 10 µM: 89.1%

## COc1nn(CC(=O)Nc2cccc(CCc3ccncc3)c2)c(=O)c2ccccc12 [CBK285560]
  viability at 28.5 h, 10 µM: 94.5%

## COc1ccccc1N1CCN(C(=O)c2ccc3c(c2)no[n+]3[O-])CC1 [CBK091510]
  viability at 28.5 h, 10 µM: 85%

## CC(C)c1ccc(/C=C/C(=O)N2CCN(C3CCN(C)CC3)CC2)cc1 [CBK149094]
  viability at 28.5 h, 10 µM: 105%

## Cc1cccc(-c2ccc(CC3(C(N)=O)CCN(C(=O)COc4ccccc4)CC3)cc2)c1 [CBK285797]
  viability at 28.5 h, 10 µM: 93.6%

## Nc1nc(CSc2nnc(-c3ccco3)n2-c2ccccc2)cs1 [CBK269693]
  viability at 28.5 h, 10 µM: 97.9%

## Fc1ccc(CN(Cc2ccsc2)[C@@H]2COC[C@H]2c2ccc(F)cc2)cc1 [CBK286486]
  viability at 28.5 h, 10 µM: 92.8%

## Cc1nnc2c(N3CCN(CCO)CC3)nc3ccccc3n12 [CBK270146]
  viability at 28.5 h, 10 µM: 83.2%

## O=C(Cn1cc(Br)ccc1=O)NC1CCN(Cc2ccccn2)CC1 [CBK305686]
  viability at 28.5 h, 10 µM: 92.2%

## Cc1cccc(C(=O)NNC(=O)COc2cccc3ccccc23)c1O [CBK262993]
  viability at 28.5 h, 10 µM: 87.7%

## CCOC(=O)C(N)CSC1CC(=O)N(c2ccc(Br)cc2)C1=O (stereo not shown) [CBK017250C]
  viability at 28.5 h, 10 µM: 102%

## C[C@@H]1CNCCN1c1nccnc1OCCOc1cccnc1OCCN [CBK040757T]
  viability at 28.5 h, 10 µM: 88.8%

## C[C@@H]1c2c(C(=O)OC(C)(C)C)ncn2-c2ccc(F)cc2N1CC(=O)N1CCCC1 [CBK016704]
  viability at 28.5 h, 10 µM: 85.3%

## COC(=O)CC[C@H]1CNC(=O)[C@@H]2[C@@H](CCN2C)N1C [CBK289020]
  viability at 28.5 h, 10 µM: 95.4%

## COc1ccc(C(C)c2cc3c(cc2OCCO)OCO3)c(F)c1 (stereo not shown) [CBK200111]
  viability at 28.5 h, 10 µM: 60.4%

## CS(=O)(=O)N(Cc1ccc(Cl)cc1)c1ccc(C(=O)N2CCC(C(N)=O)CC2)cc1 [CBK265327]
  viability at 28.5 h, 10 µM: 89.7%

## CCOC(=O)CNC1CCCCC1 [CBK023276C]
  viability at 28.5 h, 10 µM: 91%

## COc1cc2c3c([nH]c2cc1F)C1(CCN(CCOc2ccccc2)C1)NCC3 (stereo not shown) [CBK115687T]
  viability at 28.5 h, 10 µM: 77.6%

## O=C1CCC(=O)N1CCn1c(=O)n(C(=O)CCC2CCCC2)c2ccccc21 [CBK106495]
  viability at 28.5 h, 10 µM: 96.8%

## O=C(Nc1cccc(-c2nc3ncccc3o2)c1)c1ccc(OCc2ccccc2)cc1 [CBK263139]
  viability at 28.5 h, 10 µM: 102%

## Cc1onc(-c2ccccc2Cl)c1C(=O)N(Cc1nc(-c2ccccc2)no1)C1CCCCC1 [CBK268790]
  viability at 28.5 h, 10 µM: 108%

## Cn1cc(C(=O)NC(Cc2cccs2)c2ccccn2)ccc1=O (stereo not shown) [CBK285209]
  viability at 28.5 h, 10 µM: 112%

## Cc1cccc(-n2c(C3CCCNC3=O)n[nH]c2=S)c1 (stereo not shown) [CBK012842]
  viability at 28.5 h, 10 µM: 89%

## Cc1cc(C(=O)NCCn2ccnc2C)nc2ccccc12 [CBK281894]
  viability at 28.5 h, 10 µM: 101%

## COc1ccc(-c2ccc(/C=N/N=C3\NC(=O)C(CC(=O)O)S3)o2)c([N+](=O)[O-])c1 (stereo not shown) [CBK264516]
  viability at 28.5 h, 10 µM: 102%

## CS(=O)(=O)c1ccc(-c2cnc(N)c(NCC3CCOCC3)n2)cc1 [CBK063849]
  viability at 28.5 h, 10 µM: 103%

## Cc1c(CN(C)C(=O)c2ccc(COc3ccc(Cl)cc3)cc2)cnn1C [CBK265756]
  viability at 28.5 h, 10 µM: 98.9%

## CC(=O)OC(COc1ccc(F)cc1)Cn1cnc2ccccc21 (stereo not shown) [CBK266162]
  viability at 28.5 h, 10 µM: 104%

## COc1ccc([C@@]23CC[C@@H](CNC(=O)c4ccc(C(F)(F)F)cc4)C[C@@H]2N(C)CC3)cc1OC [CBK042195]
  viability at 28.5 h, 10 µM: 107%

## O=C1N(CN2CCN(c3cccc(C(F)(F)F)c3)CC2)c2ccccc2C12OCCCO2 [CBK294461]
  viability at 28.5 h, 10 µM: 99%

## CC(C)n1c(COc2ccc(OC(F)(F)F)cc2)n[nH]c1=S [CBK012989]
  viability at 28.5 h, 10 µM: 92.9%

## Cc1ccc(OC(C)C(=O)N2CCCc3c(cnn3C)C2)cc1 (stereo not shown) [CBK282242]
  viability at 28.5 h, 10 µM: 98.2%

## CCN(Cc1ccncc1)C(=O)NCc1cc(C)on1 [CBK155122]
  viability at 28.5 h, 10 µM: 85.2%
